From US20080275215A1, “Fluorescein-Based Compounds And Their Use For Peptide Synthesis” (COMMISSARIAT A L'ENERGIE ATOMIQUE, priority 2005, published 2008)

What was measured:
Format in all cases: physicochemical
[1] = Fluorescence emission spectra and fluorescence quantum yield; conditions: for fluorescence emission λmax: 50 mM sodium tetraborate buffer pH 9.8; for fluorescence quantum yield φ: alkaline fluorescein as reference
Experimental: (§1) Standard UV-visible and fluorescence spectra were recorded in 50 mM sodium tetraborate buffer pH 9.8 at 0.5-10 μM fluorescent compounds concentration. The fluorescence quantum yield of the fluorescent compounds was determined as described by Adamczyk et al. (previously cited) using alkaline solution of fluorescein as a reference (φ=0.92) (Lohse et al.; Adamczyk et al.; Klonis et al. and Martin et al., all previously cited).

[2] = UV-visible absorbance spectra; conditions: for absorbance maximum (longer wavelength) / absorbance maximum (shorter wavelength): 50 mM sodium tetraborate buffer pH 9.8; for molar extinction coefficient: at 456 nm
Experimental: as §1

[3] = pH effect on fluorescence; conditions: range of pH 4.0-10.0; λexc 488 nm/λem 515 nm
Experimental: To measure the pH effect on fluorescence, 50 nM of fluorescent compounds k) (dye 15) or l) (dye 16) solution in 50 mM sodium tetraborate buffer (pH 9.8) was slowly titrated with HCl, aliquots were taken between pH 9.8 and 4, and fluorescence was measured at λexc 488 nm/λem 515 nm.

[4] = Dye photostability (photobleaching) study under fluorescence microscope; conditions: after 6 min of irradiation
Experimental: Super-Teflon glass slides (VWR International) carrying 40 circular wells of 2 mm diameter, separated by 30 μm-thick Teflon coating were used in dye photostability study. A well was filled with 1 μl of 5 mM fluorescein compounds k) (dye 15) or 1) (dye 16) solution in 50 mM sodium tetraborate buffer pH 9.8 and was enclosed with a coverslip.
The entire well volume was irradiated under the microscope with standard “fluorescein” filters set. The intensity delivered by the source on the surface of the slide was measured with a COHERENT LaserCheck probe, and found to be ˜6 mW/cm^2 at 488 nm. Well images were recorded regularly with IMSTAR software and mean fluorescence intensity was calculated.
For comparison of the photostability of fluorophores under the condition of signal acquisition with fluorescent microscope, the sample was placed in a well on the surface of a glass slide that contains 40 circular wells of 2 mm diameter, separated by 30 μm-thick Teflon coating. The well was then enclosed with a coverslip producing a cylindrical sample chamber of ˜380 nl volume. […] The resulted light intensity at the chamber level was measured to be ˜6 mW/mm^2. At different times the fluorescence images of the well were taken and mean fluorescence intensity was calculated using IMSTAR software (Khomyakova et al., previously cited).

[5] = Stability of 2'-ester toward alkaline hydrolysis; conditions: several hours in aqueous pH 9.8 buffer
Source text: This is explained by the absence of ionic equilibrium in 3-O-alkyl fluorescein derivatives trapped in a tautomeric quinoid form by 2′-esterification. The stability of 2′-ester toward an alkaline hydrolysis was also checked by following the absorbance and fluorescence spectra.

fluorescence emission λmax [1] [nm] | fluorescence quantum yield φ [1] | absorbance maximum (longer wavelength) [2] [nm] | absorbance maximum (shorter wavelength) [2] [nm] | molar extinction coefficient [2] [L/mol/cm] | pH-dependence of fluorescence and quantum yield [3] | decrease in fluorescence [4] [%] | changes in absorbance and fluorescence spectra (2'-ester alkaline hydrolysis) [5] | SMILES
520 | 0.19 | 481 | 456 | 22000 | virtually pH-independent | ~10 | No significant changes | CCOC(=O)c1cc(NC(C)=O)ccc1-c1c2ccc(=O)cc-2oc2cc(OCC(=O)O)ccc12 [k), 5-acetylamino-2-(6-carboxymethoxy-3-oxo-3H-xanthen-9-yl)-benzoic acid ethyl ester]
520 | 0.18 | 481 | 456 | 23000 | virtually pH-independent | ~10 | No significant changes | CCOC(=O)c1ccc(NC(C)=O)cc1-c1c2ccc(=O)cc-2oc2cc(OCC(=O)O)ccc12 [l), 4-acetylamino-2-(6-carboxymethoxy-3-oxo-3H-xanthen-9-yl)-benzoic acid ethyl ester]
